Assay results published in ChEMBL document CHEMBL5528064, “Invention of MK-7845, a SARS-CoV-2 3CL Protease Inhibitor Employing a Novel Difluorinated Glutamine Mimic” (J Med Chem, 2024).
Values after ≈ are worked out from the molar mass of the structure shown.

Legend:
SARS-CoV-2 [1] = assay: Antiviral activity against ancestral SARS-CoV-2 WA1/2020 infected in human A549-hACE2-TMPRSS2 cells assessed as inhibition of virus induced cytopathic effect incubated for 72 hrs by celltiter glo assay; assay type: functional, organism-based; settings: Severe acute respiratory syndrome coronavirus 2, WA1/2020, A549-hACE2-TMPRSS2, 72 h
[2] = Plasma protein binding in rat assessed as free fraction at 1 uM; assay type: ADME, cell-free
[3] = Aqueous solubility of compound; assay type: physicochemical; settings: buffer
[4] = Plasma stability in rhesus monkey assessed as epimerization; assay type: ADME, cell-free, Macaca mulatta
[5] = molecular target: T1, Nuclear receptor subfamily 1 group I member 2 (Homo sapiens, UniProt O75469); assay: Activation of PXR (unknown origin); assay type: toxicity
T1 sequence (O75469 whole entry): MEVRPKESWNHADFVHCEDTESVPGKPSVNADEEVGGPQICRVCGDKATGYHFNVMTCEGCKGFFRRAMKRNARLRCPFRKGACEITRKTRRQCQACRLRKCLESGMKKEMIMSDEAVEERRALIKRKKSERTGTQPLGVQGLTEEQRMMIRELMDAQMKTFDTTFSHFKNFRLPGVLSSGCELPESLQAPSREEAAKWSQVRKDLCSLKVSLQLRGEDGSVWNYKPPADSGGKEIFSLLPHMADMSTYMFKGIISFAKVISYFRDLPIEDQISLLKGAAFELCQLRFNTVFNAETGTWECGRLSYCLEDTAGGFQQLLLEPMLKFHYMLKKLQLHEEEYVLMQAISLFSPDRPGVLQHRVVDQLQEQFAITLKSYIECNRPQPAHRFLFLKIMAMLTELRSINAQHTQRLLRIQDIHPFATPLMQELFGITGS

[6] = Plasma protein binding in dog assessed as unbound fraction at 1 uM; assay type: ADME, cell-free, Canis lupus familiaris
[7] = Volume of distribution at steady state in rat by measuring compound and its epimer at 3 mg/kg, po or 1 mg/kg, iv measured upto 24 hrs by LC-MS analysis; assay type: ADME, organism-based; settings: in vivo
[8] = molecular target: T2, PXR (nuclear receptor subfamily 1 group I member 2) (Homo sapiens, UniProt O75469); assay: Activation of PXR (unknown origin) assessed as maximal activation at 30 uM relative to control; assay type: toxicity; settings: read-out: Activity
T2 sequence (O75469 whole entry): T1 sequence (O75469 whole entry)

[9] = Plasma protein binding in human assessed as unbound fraction at 1 uM; assay type: ADME, cell-free
SARS-CoV-2 [10] = assay: Antiviral activity against SARS CoV-2 USA-WA1/2020 infected in B6.Cg-Tg(K18-ACE2)2Prlmn/J mouse assessed as fold reduction in viral load in lung at 500 mg/kg, po bid measured on day 4 post inoculation; assay type: functional, Severe acute respiratory syndrome coronavirus 2; settings: time 4 day
[11] = Volume of distribution at steady state in dog by measuring compound and its epimer at 3 mg/kg, po or 1 mg/kg, iv measured upto 24 hrs by LC-MS analysis; assay type: ADME, organism-based, Canis lupus familiaris; settings: in vivo
Cytochrome P450 2C8 = molecular target: T3, Cytochrome P450 2C8 (Homo sapiens, UniProt P10632); assay: Reversible inhibition of CYP2C8 in human liver microsomes using amodiaquine as substrate incubated for 5 mins in presence of NADPH-generating system by LC-MS/MS analysis; assay type: ADME, Microsome
T3 sequence (P10632 whole entry): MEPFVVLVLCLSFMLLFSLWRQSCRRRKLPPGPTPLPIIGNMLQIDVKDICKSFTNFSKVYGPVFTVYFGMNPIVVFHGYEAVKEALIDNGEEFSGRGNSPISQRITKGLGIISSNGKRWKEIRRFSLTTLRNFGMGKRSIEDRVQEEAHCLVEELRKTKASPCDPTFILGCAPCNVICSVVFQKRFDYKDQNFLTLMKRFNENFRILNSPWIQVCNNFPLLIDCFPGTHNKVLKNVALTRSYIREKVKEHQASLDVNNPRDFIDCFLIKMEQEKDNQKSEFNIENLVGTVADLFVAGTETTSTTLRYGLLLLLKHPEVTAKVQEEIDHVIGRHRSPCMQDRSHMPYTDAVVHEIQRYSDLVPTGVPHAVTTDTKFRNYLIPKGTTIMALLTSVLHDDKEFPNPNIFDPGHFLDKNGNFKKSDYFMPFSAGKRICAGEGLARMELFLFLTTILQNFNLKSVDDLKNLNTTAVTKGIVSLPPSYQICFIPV

CNC(=O)C(=O)[C@H](CCC(C)(F)F)NC(=O)[C@@H]1[C@H]2CCC[C@H]2CN1C(=O)[C@@H](NC(=O)OC)C(C)(C)C
IC50 (SARS-CoV-2 [1]): 0.444 µM | fraction unbound at 1 µM [2]: 0.1 | solubility [3]: 4500 µg/mL (≈ 8.71 mM) | Stability [4]: Unstable | EC50 [5]: > 30 µM | fraction unbound at 1 µM [6]: 0.09 | Vdss [7]: 2.8 L/kg | Emax at 30 µM [8]: 29% | fraction unbound at 1 µM [9]: 0.27 | fold change (FC) (SARS-CoV-2 [10]): 5 | Vdss [11]: 0.4 L/kg | IC50 (Cytochrome P450 2C8): > 200 µM
